Experimental data from ChEMBL document CHEMBL5252624, “Antifungal evaluation of quinoline-chalcone derivatives combined with FLC against drug-resistant Candida albicans” (2023).
Calls of active or inactive are those of the source. No cut-off for these calls is given here.

Key:
Candida albicans [1] = test: Antifungal activity against […] assessed as fractional inhibitory concentration index in presence of fluconazole by microdilution method; format: functional
Candida albicans [2] = test: Antifungal activity against Candida albicans ATCC SC5314 assessed as fractional inhibitory concentration index in presence of fluconazole by microdilution method; format: functional
Candida albicans [3] = test: Antifungal activity against Candida albicans ATCC SC5314 assessed as fungal growth inhibition in presence of fluconazole by microdilution method; format: functional
Candida albicans [4] = test: Antifungal activity against Candida albicans ATCC SC5314 assessed as fungal growth inhibition by microdilution method; format: functional
Candida albicans [5] = test: Antifungal activity against […] assessed as fungal growth inhibition in presence of fluconazole by microdilution method; format: functional
Candida albicans [6] = test: Antifungal activity against […] assessed as fungal growth inhibition by microdilution method; format: functional
Candida albicans [7] = test: Downregulation of ATP level in Candida albicans; format: functional, organism-based
Candida albicans [8] = test: Downregulation of ATP level in Candida albicans in presence of fluconazole; format: functional, organism-based
Candida albicans [9] = test: Inhibition of mitochondrial membrane potential in Candida albicans in presence of fluconazole; format: functional, organism-based
Candida albicans [10] = test: Induction of ROS accumulation in Candida albicans assessed as increase in intracellular ROS level in presence of fluconazole; format: functional, organism-based
Candida albicans [11] = test: Induction of ROS accumulation in Candida albicans assessed as increase in intracellular ROS level; format: functional, organism-based
Candida albicans [12] = test: Antifungal activity against […] assessed as fungal growth inhibition measured for 72 hrs by time kill assay; format: functional, organism-based
Candida albicans [13] = test: Antifungal activity against […] assessed as fungal growth inhibition in presence of fluconazole by time kill assay; format: functional, organism-based; settings: time 72.0 hrs, TDE = time-dependent effect
Candida albicans [14] = test: Antifungal activity against Candida albicans ATCC SC5314 assessed as reduction in hypha length at 32 microg/ml measured for 4 to 8 hrs in presence fluconazole of by inverted microscopic analysis; format: functional, organism-based; settings: dose 32.0 µg/ml, time 4-8 hrs
Candida albicans [15] = test: Antifungal activity against Candida albicans ATCC SC5314 assessed as decrease in number of hypha at 32 microg/ml measured for 4 to 8 hrs in presence fluconazole of by inverted microscopic analysis; format: functional, organism-based; settings: dose 32.0 µg/ml, time 4-8 hrs
Candida albicans [16] = test: Inhibition of biofilm formation in Candida albicans ATCC SC5314 at 32 microg/ml in presence fluconazole measured at 24 hrs; format: functional, organism-based; settings: dose 32.0 µg/ml
Candida albicans [17] = test: Inhibition of mitochondrial membrane potential in Candida albicans; format: functional, organism-based

| SMILES | FICI80 (Candida albicans [1]) | FICI80 (Candida albicans [2]) | MIC80 (Candida albicans [3]) [µg/mL] | MIC80 (Candida albicans [4]) [µg/mL] | MIC80 (Candida albicans [5]) [µg/mL] | other results |
| --- | --- | --- | --- | --- | --- | --- |
| O=C(/C=C/c1cc2ccccc2nc1N1CCCCC1)c1ccc(F)cc1 | 2 | 0.48 | 0.96 | > 200 |  |  |
| CN1CCN(c2nc3ccccc3cc2/C=C/C(=O)c2ccc(F)cc2)CC1 | 0.16 | 1.82 | 3.61 | 85.9 | 6.4 | MIC80 (Candida albicans [6]): > 200 µg/mL; Activity (Candida albicans [7]): Active; Activity (Candida albicans [8]): Active; inhibition (Candida albicans [9]): Active; Activity (Candida albicans [10]): Active; Activity (Candida albicans [11]): Active; Activity (Candida albicans [12]): Active; Activity (Candida albicans [13]): Tde; Activity (Candida albicans [14]): Active; Activity (Candida albicans [15]): Active; inhibition (Candida albicans [16]): Active |
| CCN(CC)c1nc2ccccc2cc1/C=C/C(=O)c1ccc([N+](=O)[O-])cc1 | 2 | 1.98 | 3.99 | > 200 |  |  |
| CCOc1nc2ccccc2cc1/C=C/C(=O)c1ccc(F)cc1 | 2 | 2.74 | 5.54 | > 200 |  |  |
| CCN(CC)c1nc2ccccc2cc1/C=C/C(=O)c1ccc(F)cc1 | 0.03 | 0.93 | 1.87 | > 200 | 5.36 |  |
| CN1CCN(c2nc3ccccc3cc2/C=C/C(=O)c2ccc(OC(F)(F)F)cc2)CC1 | 0.23 | 2.35 | 4.28 | 17.6 | 6.14 | MIC80 (Candida albicans [6]): 17.8 µg/mL |
| CN1CCN(c2nc3ccccc3cc2/C=C/C(=O)c2ccc([N+](=O)[O-])cc2)CC1 | 0.17 | 1.25 | 4.28 | > 200 | 6.9 | Activity (Candida albicans [7]): Active; Activity (Candida albicans [8]): Active; inhibition (Candida albicans [17]): inactive; Activity (Candida albicans [10]): Active; Activity (Candida albicans [11]): inactive; Activity (Candida albicans [12]): Active; Activity (Candida albicans [13]): Tde; inhibition (Candida albicans [16]): Active |
| Cc1cccc(C)c1Oc1nc2ccccc2cc1/C=C/C(=O)c1ccc(OC(F)(F)F)cc1 | 2 | 1.17 | 2.37 | > 200 |  |  |
| Cc1cccc(C)c1Oc1nc2ccccc2cc1/C=C/C(=O)c1ccc([N+](=O)[O-])cc1 | 0.23 | 1.52 | 3.07 | > 200 |  |  |
| Cc1cccc(C)c1Oc1nc2ccccc2cc1/C=C/C(=O)c1ccc(F)cc1 | 0.33 | 0.58 | 1.17 | > 200 | 65.1 |  |
| O=C(/C=C/c1cc2ccccc2nc1N1CCCCC1)c1ccc([N+](=O)[O-])cc1 | 2 | 2.79 | 5.64 | > 200 |  |  |
| CCOc1nc2ccccc2cc1/C=C/C(=O)c1ccc([N+](=O)[O-])cc1 | 2 | 2.46 | 4.96 | > 200 |  |  |
| OC(Cn1cncn1)(Cn1cncn1)c1ccc(F)cc1F [FLUCONAZOLE] |  |  |  | 2.03 |  | MIC80 (Candida albicans [6]): > 200 µg/mL |
| O=C(/C=C/c1cc2ccccc2nc1N1CCCCC1)c1ccc(OC(F)(F)F)cc1 | 2 | 2.42 | 4.89 | > 200 |  |  |
| CCN(CC)c1nc2ccccc2cc1/C=C/C(=O)c1ccc(OC(F)(F)F)cc1 | 0.02 | 0.92 | 1.85 | > 200 | 4.42 |  |
| CCOc1nc2ccccc2cc1/C=C/C(=O)c1ccc(OC(F)(F)F)cc1 | 0.08 | 16.04 | 2.9 | > 200 | 16 |  |
